Laboratory results as given in US12150998B2, “Bicyclic peptide ligands specific for P-selectin” (BicycleTx Limited, priority 2021, dated 2024).
Where two headings read alike, the source gives them in different places. Starred links: 1 amine or outer side, 2 acyl side, 3 side chain; linkers in the order of their positions; H or OH if unused. Positions of bridges follow the written chain, without caps; N, C: chain ends. Non-standard residues stand in square brackets, D forms with d. Residues, ends and D or L forms follow the SMILES beside them. Chains are numbered I, II in the order given. X2 = O=C(CCCC(=O)NCCOCCOCCOCCOCCOCCOCCOCCOCCOCCOCCOCCOCCOCCOCCOCCOCCOCCOCCOCCOCCOCCOCCOCCn1cc(CCC(=O)[*:2])nn1)NCCOCCOCCOCCOCCOCCOCCOCCOCCOCCOCCOCCOCCOCCOCCOCCOCCOCCOCCOCCOCCOCCOCCOCCn1cc(CCC(=O)[*:1])nn1; X1 = O=C(C[*:1])N1CCN(C(=O)C[*:2])CCN(C(=O)C[*:3])CC1; 1Nal = N[C@@H](Cc1cccc2ccccc12)C(=O)O

Assays:
[1] = molecular target: T1, P-Selectin:PSGL1 interaction (Homo sapiens, UniProt P16109); experiment: Receptor ligand inhibition assay (P-Selectin binding to HL-60 cells); format: cell-based; conditions: geomean of n=3; for IC50: 5 nM P-Selectin, HL-60 cells, read-out: IC50; for Inhibition at top concentration: 100−% response at top concentration
T1 construct: host or cells: HL-60 cells (ATCC, CCL-240) supply the PSGL-1 partner endogenously
T1 sequence (P16109 42-771 limits assumed): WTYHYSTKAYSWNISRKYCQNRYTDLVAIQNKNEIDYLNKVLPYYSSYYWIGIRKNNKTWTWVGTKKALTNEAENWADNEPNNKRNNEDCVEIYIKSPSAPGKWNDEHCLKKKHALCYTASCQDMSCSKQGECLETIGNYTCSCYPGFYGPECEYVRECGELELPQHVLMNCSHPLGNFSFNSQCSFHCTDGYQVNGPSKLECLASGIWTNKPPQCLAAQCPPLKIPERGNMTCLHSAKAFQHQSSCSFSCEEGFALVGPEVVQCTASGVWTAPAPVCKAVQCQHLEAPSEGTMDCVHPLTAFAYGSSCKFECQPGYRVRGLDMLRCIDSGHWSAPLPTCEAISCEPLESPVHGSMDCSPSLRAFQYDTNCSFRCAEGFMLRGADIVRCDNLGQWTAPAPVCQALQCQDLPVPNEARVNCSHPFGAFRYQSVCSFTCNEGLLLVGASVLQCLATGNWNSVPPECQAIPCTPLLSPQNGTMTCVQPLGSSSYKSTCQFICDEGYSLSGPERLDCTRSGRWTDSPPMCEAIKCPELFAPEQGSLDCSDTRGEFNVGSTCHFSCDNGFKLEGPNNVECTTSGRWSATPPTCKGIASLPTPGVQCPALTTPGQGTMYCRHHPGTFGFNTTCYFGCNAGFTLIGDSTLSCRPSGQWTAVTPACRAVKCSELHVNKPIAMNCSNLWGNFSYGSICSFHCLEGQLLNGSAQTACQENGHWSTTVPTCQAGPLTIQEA
Protocol: Bicycle test samples, SelG1 (Crizanlizumab) were serially diluted maintaining 0.5% DMSO in assay buffer (25 mM HEPES, 121 mM NaCl, 5.4 mM KCl, 0.8 mM MgCl2, 1.8 mM CaCl2), 6 mM […], 5.5 mM glucose, 1% BSA, pH7.4) and transferred to 384 well clear bottom plates (Corning, 3712) with a final volume of 6 μL. […], of P-Selectin in imaging buffer (25 mM HEPES, 121 mM NaCl, 5.4 mM KCl, 0.8 mM MgCl2, 1.8 mM CaCl2), 6 mM […], 5.5 mM glucose, pH7.4) was added to give a 5 nM final concentration and incubated at room temperature for 15 minutes. HL-60 cells (ATCC, CCL-240) mixed with 1 μg/mL far red labelled wheat germ agglutinin (WGA, ThermoFisher W21404) and 1 μg/mL AlexaFluor 488-streptavidin (Invitrogen S11223) were added to the plate and incubated for 2 hours at room temperature in the absence of light. Staining and antibody binding were quantified by simultaneously scanning the microplates with 488 nm and 640 nm lasers on a mirrorball microplate cytometer, AF488 on FL2 triggering on AF647-WGA on FL4. Data was analysed in Dotmatics, using a four parameter logistic fit to generate IC50 values and % response. Percent inhibition was calculated using 100−% response at top concentration.

human P-Selectin protein = molecular target: T2, human P-Selectin protein (Homo sapiens, UniProt P16109); experiment: SPR binding assay (Biacore); conditions: recombinant biotinylated human P-Selectin, 25° C.
T2 sequence (P16109 42-830): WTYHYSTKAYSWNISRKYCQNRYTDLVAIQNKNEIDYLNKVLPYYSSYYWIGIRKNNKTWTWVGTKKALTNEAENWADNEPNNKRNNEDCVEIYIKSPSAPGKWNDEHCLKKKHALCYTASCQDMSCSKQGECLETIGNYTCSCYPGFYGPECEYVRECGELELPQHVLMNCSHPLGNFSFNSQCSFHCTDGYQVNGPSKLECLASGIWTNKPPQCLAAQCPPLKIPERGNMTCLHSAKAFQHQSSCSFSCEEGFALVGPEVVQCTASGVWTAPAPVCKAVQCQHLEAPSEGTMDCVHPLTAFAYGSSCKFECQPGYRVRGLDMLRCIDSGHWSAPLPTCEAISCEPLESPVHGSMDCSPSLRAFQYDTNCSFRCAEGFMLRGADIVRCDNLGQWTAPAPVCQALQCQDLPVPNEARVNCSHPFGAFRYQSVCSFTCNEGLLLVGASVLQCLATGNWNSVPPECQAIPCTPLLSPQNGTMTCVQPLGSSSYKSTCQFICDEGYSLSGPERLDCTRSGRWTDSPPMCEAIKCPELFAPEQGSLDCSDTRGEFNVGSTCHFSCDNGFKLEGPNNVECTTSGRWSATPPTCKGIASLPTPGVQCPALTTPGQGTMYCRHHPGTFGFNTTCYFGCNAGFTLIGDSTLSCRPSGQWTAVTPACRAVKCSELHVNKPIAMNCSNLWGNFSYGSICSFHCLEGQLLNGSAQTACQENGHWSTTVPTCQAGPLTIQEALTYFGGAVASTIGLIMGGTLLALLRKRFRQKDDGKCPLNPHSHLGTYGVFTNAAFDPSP
Protocol: Biacore experiments were performed to determine ka (M−1s−1), kd (s−1), KD (nM) values of monomeric peptides binding to human Selectin proteins. Recombinant biotinylated human P-Selectin protein was used. For analysis of binding, either a Biacore 3000 or 5200 instrument was used with a CMS sensor chip (GE Healthcare). For sensor chip surface preparation, streptavidin was immobilized on the chip using standard amine-coupling chemistry at 25° C. with HBS-N (10 mM HEPES, 0.15 M NaCl, pH 7.4) as the running buffer. The carboxymethyl dextran surface was activated with a 12 min injection of a 1:1 ratio of 0.4 M 1-ethyl-3-(3-dim ethyl aminopropyl) carbodiimide hydrochloride (EDC)/0.1 M N-hydroxy succinimide (NHS) at a flow rate of 10 μl/min. For capture of streptavidin, protein was diluted to 0.2 mg/ml in 10 mM sodium acetate (pH 4.5) and captured by injecting 70 μl onto the activated chip surface. Residual activated groups were blocked with a 7 min injection of 1 M ethanolamine (pH 8.5). Biotinylated protein stock was diluted 1:100 in HBS-N and captured on one flow cell at 5 μl/min to a level of 1000-1500 RU. Buffer was changed to PBS/0.05% Tween 20 and a dilution series of the peptides was prepared in this buffer with a final DMSO concentration of 0.5%. The top concentration of the analyte varied from 200 nM to 50 μM; depending on predicted affinity of the interaction. In all cases a titration was performed with either seven 2-fold dilutions or five 3-fold dilutions. The SPR analysis was run at 25° C. with a flow rate of 50-80 μl/min with 60 seconds association and a suitable disassociation period (100-900 seconds). Data were corrected for DMSO excluded volume effects. All data were double-referenced for blank injections and reference surface using standard processing procedures and data processing and kinetic fitting were performed using Scrubber software, version 2.0c (BioLogic Software). Data were fitted using mass transport model allowing for mass transport effects where appropriate.

## CC(C)C[C@@H]1NC(=O)[C@H](CO)NC(=O)[C@@H]2CCCN2C(=O)[C@H](C(C)C)NC(=O)[C@H](CC(=O)O)NC(=O)[C@@H]2CSCC(=O)N3CCN(CCN(CC3)C(=O)CSC[C@@H](C(=O)N[C@@H](C)C(N)=O)NC(=O)[C@@H]3CCCN3C1=O)C(=O)CSC[C@H](NC(=O)[C@H](C)N)C(=O)N[C@@H](CC(=O)O)C(=O)N[C@@H](C)C(=O)N[C@@H](CC(=O)O)C(=O)N[C@@H](Cc1cccc3ccccc13)C(=O)N2 [BCY12027, A-(SEQ ID NO: 2)-A] (H-ACDAD[1Nal]CDVPSLPCA-NH2; linker 2-7-14 via X1; N-terminus assumed)
[1]
  IC50: > 36.8 nM
  Inhibition at top concentration: 36%
Human P-Selectin protein; read-out: Affinity KD determined by SPR
  Kd: < 10 nM

## CC(C)C[C@@H]1NC(=O)[C@H](CO)NC(=O)[C@@H]2CCCN2C(=O)[C@H](C(C)C)NC(=O)[C@H](CC(=O)O)NC(=O)[C@@H]2CSCC(=O)N3CCN(CCN(CC3)C(=O)CSC[C@@H](C(=O)N[C@@H](C)C(=O)N[C@@H](CCCCNC(=O)CCc3cn(CCOCCOCCOCCOCCOCCOCCOCCOCCOCCOCCOCCOCCOCCOCCOCCOCCOCCOCCOCCOCCOCCOCCOCCNC(=O)CCCC(=O)NCCOCCOCCOCCOCCOCCOCCOCCOCCOCCOCCOCCOCCOCCOCCOCCOCCOCCOCCOCCOCCOCCOCCOCCn4cc(CCC(=O)NCCCC[C@H](NC(=O)[C@H](C)NC(=O)[C@@H]5CSCC(=O)N6CCN7CCN(CC6)C(=O)CSC[C@H](NC(=O)[C@H](Cc6c[nH]c8ccccc68)NC(=O)[C@H](CC(=O)O)NC(=O)[C@H](C)NC(=O)[C@H](CC(=O)O)NC(=O)[C@@H](NC(=O)[C@H](C)N)CSCC7=O)C(=O)N[C@@H](CC(=O)O)C(=O)N[C@@H](C(C)C)C(=O)N6CCC[C@H]6C(=O)N[C@@H](CO)C(=O)N[C@@H](CC(C)C)C(=O)N6CCC[C@H]6C(=O)N5)C(N)=O)nn4)nn3)C(N)=O)NC(=O)[C@@H]3CCCN3C1=O)C(=O)CSC[C@H](NC(=O)[C@H](C)N)C(=O)N[C@@H](CC(=O)O)C(=O)N[C@@H](C)C(=O)N[C@@H](CC(=O)O)C(=O)N[C@@H](Cc1c[nH]c3ccccc13)C(=O)N2 [BCY12257] (I: H-ACDADWCDVPSLPCAK-NH2 / II: H-ACDADWCDVPSLPCAK-NH2; linker I:2-I:7-I:14, II:2-II:7-II:14 via X1; linker I:16-II:16 via X2)
[1]
  IC50: > 78.4 nM
  Inhibition at top concentration: 54%
Human P-Selectin protein; Affinity KD determined by SPR
  Kd: 11.6 nM

## CC(C)C[C@@H]1NC(=O)[C@H](CO)NC(=O)[C@@H]2CCCN2C(=O)[C@H](C(C)C)NC(=O)[C@H](CC(=O)O)NC(=O)[C@@H]2CSCC(=O)N3CCN(CCN(CC3)C(=O)CSC[C@@H](C(=O)N[C@@H](C)C(=O)N[C@@H](CCCCNC(=O)CCc3cn(CCOCCOCCOCCOCCOCCOCCOCCOCCOCCOCCOCCOCCOCCOCCOCCOCCOCCOCCOCCOCCOCCOCCOCCNC(=O)CCCC(=O)NCCOCCOCCOCCOCCOCCOCCOCCOCCOCCOCCOCCOCCOCCOCCOCCOCCOCCOCCOCCOCCOCCOCCOCCn4cc(CCC(=O)NCCCC[C@H](NC(=O)[C@H](C)NC(=O)[C@@H]5CSCC(=O)N6CCN7CCN(CC6)C(=O)CSC[C@H](NC(=O)[C@H](Cc6cccc8ccccc68)NC(=O)[C@H](CC(=O)O)NC(=O)[C@H](C)NC(=O)[C@H](CC(=O)O)NC(=O)[C@@H](NC(=O)[C@H](C)N)CSCC7=O)C(=O)N[C@@H](CC(=O)O)C(=O)N[C@@H](C(C)C)C(=O)N6CCC[C@H]6C(=O)N[C@@H](CO)C(=O)N[C@@H](CC(C)C)C(=O)N6CCC[C@H]6C(=O)N5)C(N)=O)nn4)nn3)C(N)=O)NC(=O)[C@@H]3CCCN3C1=O)C(=O)CSC[C@H](NC(=O)[C@H](C)N)C(=O)N[C@@H](CC(=O)O)C(=O)N[C@@H](C)C(=O)N[C@@H](CC(=O)O)C(=O)N[C@@H](Cc1cccc3ccccc13)C(=O)N2 [BCY12258] (I: H-ACDAD[1Nal]CDVPSLPCAK-NH2 / II: H-ACDAD[1Nal]CDVPSLPCAK-NH2; linker I:2-I:7-I:14, II:2-II:7-II:14 via X1; linker I:16-II:16 via X2)
[1]
  IC50: > 97.7 nM
  Inhibition at top concentration: 57%
Human P-Selectin protein; Affinity KD determined by SPR
  Kd: 0.409 nM
